Assay results reported in patent publication US10336732B2, “1-heterocyclyl isochromanyl compounds and analogs for treating CNS disorders” (Sunovion Pharmaceuticals Inc., priority 2015, dated 2019).

What follows are molecules tested on mice (assay: Neuropharmacological assay (SmartCube), behavioral signature of compound-treated mice). Settings: i.p. 15 min before behavioral test, most efficacious dose(s) of 3 doses.
Type: in vivo
Procedure, shortened: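 Read-out is an automated video-based behavioral signature, scored as per-class probabilities (e.g., anxiolytic, antidepressant) against reference compounds. Dosing was i.p. at three doses, 15 min pre-test, in NMP, polyethylene glycol and propylene glycol. Values shown are from the most efficacious dose(s).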

| SMILES | AD: ADHD (probability that behavioral signature matches class) | AG: analgesic (probability that behavioral signature matches class) | AX: anxiolytic (probability that behavioral signature matches class) | CE: cognitive enhancer (probability that behavioral signature matches class) | DP: anti-depressant (probability that behavioral signature matches class) | HA: hallucinogen (probability that behavioral signature matches class) | MS: mood stabilizer (probability that behavioral signature matches class) | PS: anti-psychotic (probability that behavioral signature matches class) | SD: sedative hypnotic (probability that behavioral signature matches class) | UN: uncharacterized CNS activity (probability that behavioral signature matches class) |
| --- | --- | --- | --- | --- | --- | --- | --- | --- | --- | --- |
| Clc1ccc2c(c1)[C@@H]([C@@H]1CCCN1)OCC2 [Compound I-30, (S)-2-((S)-7-chloroisochroman-1-yl)pyrrolidine] | + (LOQ ≤ + <5%) | ++ (5% ≤ ++ <25%) | +++ (25% ≤ +++ <50%) | ++ (5% ≤ ++ <25%) | ++ (5% ≤ ++ <25%) | + (LOQ ≤ + <5%) | + (LOQ ≤ + <5%) | +++ (25% ≤ +++ <50%) | ++ (5% ≤ ++ <25%) | + (LOQ ≤ + <5%) |
| Clc1ccc2c(c1)[C@H]([C@H]1CCCN1)OCC2 [Compound I-31, (R)-2-((R)-7-chloroisochroman-1-yl)pyrrolidine] | + (LOQ ≤ + <5%) | ++ (5% ≤ ++ <25%) | +++ (25% ≤ +++ <50%) | ++ (5% ≤ ++ <25%) | ++ (5% ≤ ++ <25%) | + (LOQ ≤ + <5%) | ++ (5% ≤ ++ <25%) | +++ (25% ≤ +++ <50%) | ++ (5% ≤ ++ <25%) | + (LOQ ≤ + <5%) |
| Clc1ccc2c(c1)[C@@H]([C@H]1CCCN1)OCC2 [Compound I-32, (R)-2-((S)-7-chloroisochroman-1-yl)pyrrolidine] | + (LOQ ≤ + <5%) | +++ (25% ≤ +++ <50%) | ++ (5% ≤ ++ <25%) | ++ (5% ≤ ++ <25%) | ++ (5% ≤ ++ <25%) | + (LOQ ≤ + <5%) | + (LOQ ≤ + <5%) | +++ (25% ≤ +++ <50%) | ++ (5% ≤ ++ <25%) | + (LOQ ≤ + <5%) |
| Clc1ccc2c(c1)CCO[C@@H]2[C@@H]1CCCN1 [Compound I-33, (S)-2-((S)-6-chloroisochroman-1-yl)pyrrolidine] | + (LOQ ≤ + <5%) | + (LOQ ≤ + <5%) | ++ (5% ≤ ++ <25%) | ++ (5% ≤ ++ <25%) | ++ (5% ≤ ++ <25%) | + (LOQ ≤ + <5%) | + (LOQ ≤ + <5%) | +++ (25% ≤ +++ <50%) | ++ (5% ≤ ++ <25%) | + (LOQ ≤ + <5%) |
| Clc1ccc2c(c1)CCO[C@H]2[C@@H]1CCCN1 [Compound I-34, (S)-2-((R)-6-chloroisochroman-1-yl)pyrrolidine] | + (LOQ ≤ + <5%) | ++ (5% ≤ ++ <25%) | ++ (5% ≤ ++ <25%) | ++ (5% ≤ ++ <25%) | ++ (5% ≤ ++ <25%) | + (LOQ ≤ + <5%) | + (LOQ ≤ + <5%) | ++ (5% ≤ ++ <25%) | ++ (5% ≤ ++ <25%) | +++ (25% ≤ +++ <50%) |
| Clc1ccc2c(c1)CCO[C@H]2[C@H]1CCCN1 [Compound I-35, (R)-2-((R)-6-chloroisochroman-1-yl)pyrrolidine] | + (LOQ ≤ + <5%) | + (LOQ ≤ + <5%) | ++ (5% ≤ ++ <25%) | ++ (5% ≤ ++ <25%) | ++ (5% ≤ ++ <25%) | + (LOQ ≤ + <5%) | + (LOQ ≤ + <5%) | +++ (25% ≤ +++ <50%) | ++ (5% ≤ ++ <25%) | ++ (5% ≤ ++ <25%) |
| Clc1ccc2c(c1)CCO[C@@H]2[C@H]1CCCN1 [Compound I-36, (R)-2-((S)-6-chloroisochroman-1-yl)pyrrolidine] | + (LOQ ≤ + <5%) | ++ (5% ≤ ++ <25%) | ++ (5% ≤ ++ <25%) | ++ (5% ≤ ++ <25%) | ++ (5% ≤ ++ <25%) | + (LOQ ≤ + <5%) | ++ (5% ≤ ++ <25%) | +++ (25% ≤ +++ <50%) | + (LOQ ≤ + <5%) | ++ (5% ≤ ++ <25%) |
| N#Cc1cccc2c1[C@@H]([C@@H]1CCCN1)OCC2 [Compound I-37, (S)-1-((S)-pyrrolidin-2-yl)isochroman-8-carbonitrile] | + (LOQ ≤ + <5%) | + (LOQ ≤ + <5%) | ++ (5% ≤ ++ <25%) | + (LOQ ≤ + <5%) | ++ (5% ≤ ++ <25%) | + (LOQ ≤ + <5%) | + (LOQ ≤ + <5%) | ++ (5% ≤ ++ <25%) | + (LOQ ≤ + <5%) | +++ (25% ≤ +++ <50%) |
| N#Cc1cccc2c1[C@H]([C@@H]1CCCN1)OCC2 [Compound I-38, (R)-1-((S)-pyrrolidin-2-yl)isochroman-8-carbonitrile] | + (LOQ ≤ + <5%) | ++ (5% ≤ ++ <25%) | ++ (5% ≤ ++ <25%) | + (LOQ ≤ + <5%) | ++ (5% ≤ ++ <25%) | + (LOQ ≤ + <5%) | + (LOQ ≤ + <5%) | + (LOQ ≤ + <5%) | + (LOQ ≤ + <5%) | + (LOQ ≤ + <5%) |

Same assay, conditions: i.p. 15 min before behavioral test, most efficacious dose(s) of 3 doses

| SMILES | XG: anxiogenic (probability that behavioral signature matches class) |
| --- | --- |
| Clc1ccc2c(c1)[C@@H]([C@@H]1CCCN1)OCC2 [Compound I-30, (S)-2-((S)-7-chloroisochroman-1-yl)pyrrolidine] | + (LOQ ≤ + <5%) |
| Clc1ccc2c(c1)[C@H]([C@H]1CCCN1)OCC2 [Compound I-31, (R)-2-((R)-7-chloroisochroman-1-yl)pyrrolidine] | + (LOQ ≤ + <5%) |
| Clc1ccc2c(c1)[C@@H]([C@H]1CCCN1)OCC2 [Compound I-32, (R)-2-((S)-7-chloroisochroman-1-yl)pyrrolidine] | + (LOQ ≤ + <5%) |
| Clc1ccc2c(c1)CCO[C@@H]2[C@@H]1CCCN1 [Compound I-33, (S)-2-((S)-6-chloroisochroman-1-yl)pyrrolidine] | + (LOQ ≤ + <5%) |
| Clc1ccc2c(c1)CCO[C@H]2[C@@H]1CCCN1 [Compound I-34, (S)-2-((R)-6-chloroisochroman-1-yl)pyrrolidine] | + (LOQ ≤ + <5%) |
| Clc1ccc2c(c1)CCO[C@H]2[C@H]1CCCN1 [Compound I-35, (R)-2-((R)-6-chloroisochroman-1-yl)pyrrolidine] | + (LOQ ≤ + <5%) |
| Clc1ccc2c(c1)CCO[C@@H]2[C@H]1CCCN1 [Compound I-36, (R)-2-((S)-6-chloroisochroman-1-yl)pyrrolidine] | + (LOQ ≤ + <5%) |
| N#Cc1cccc2c1[C@@H]([C@@H]1CCCN1)OCC2 [Compound I-37, (S)-1-((S)-pyrrolidin-2-yl)isochroman-8-carbonitrile] | + (LOQ ≤ + <5%) |
| N#Cc1cccc2c1[C@H]([C@@H]1CCCN1)OCC2 [Compound I-38, (R)-1-((S)-pyrrolidin-2-yl)isochroman-8-carbonitrile] | + (LOQ ≤ + <5%) |
